Data taken from US6441169B1, “Pyrimidin-2-oxy-4-one and pyrimidin-2-oxy-4-thione derivatives” (Syngenta Crop Protection, Inc., priority 1997, dated 2002).

Key:
[1] = test system: Colletotrichum lagenarium; assay: B-2 Action against Colletotrichum lagenarium on cucumbers; type: in vivo; conditions: cucumber plants; spray concentration 0.002%; infected 2 days later; evaluation 8 days after infection
Description: Action Against Colletotrichum lagenarium on Cucumbers After a growth period of 2 weeks, cucumber plants are sprayed with an aqueous spray mixture (concentration 0.002%) prepared from a wettable powder formulation of the test compound and infected 2 days later with a spore suspension (1.5×10^5 spores/ml) of the fungus and incubated for 36 hours at 23° C. and high humidity. Incubation is then continued at normal humidity and c. 22° C. Evaluation of the fungal infestation is made 8 days after infection.

Puccinia graminis = type: in vivo; conditions: wheat plants; a) spray 0.02% active ingredient, infected 24 hours later; b) soil drench 0.006% a.i., infected after 48 hours; evaluation 12 days after infection
Venturia inaegualis = assay: B-3 Residual-protective action against Venturia inaegualis on apples; type: in vivo; conditions: apple cuttings; spray 0.02% a.i.; infected 24 hours later; evaluation 12 days after infection
Description: Residual-protective Action Against Venturia inaegualis on Apples Apple cuttings with fresh shoots 10 to 20 cm long are sprayed to drip point with a spray mixture (0.02% a.i.) prepared from a wettable powder formulation of the test compound. The plants are infected 24 hours later with a conidia suspension of the fungus. The plants are then incubated for 5 days at 90 to 100% relative humidity and stood in a greenhouse for a further 10 days at 20 to 24° C. Evaluation of the fungal infestation is made 12 days after infection.

Compound | activity against Colletotrichum lagenarium (fungal infestation) [1] | activity against Puccinia graminis (fungal infestation) (Puccinia graminis) | activity against Venturia inaegualis (fungal infestation) (Venturia inaegualis) | melting point
CCCn1c(OCC2(C)CC2)nc2ccc(Br)cc2c1=O [Compound 1.7, 6-bromo-2-(1-methylcyclopropylmethoxy)-3-n-propyl-3Hquinazoline-4-one] | good to excellent activity | good to excellent activity | good activity | 81 to 85 °C
CCCCn1c(OCC2(C)CC2)nc2ccc(Br)cc2c1=O [Compound 1.10, 6-bromo-2-(1-methylcyclopropylmethoxy)-3-n-buyl-3H-quinazoline-4-one] | good to excellent activity | good to excellent activity | good activity | –
CC1(COc2nc3ccc(Br)cc3c(=O)n2CC2CC2)CC1 [Compound 1.15] | good to excellent activity | good to excellent activity | good activity | –
CCCn1c(OCC2CC2C)nc2ccc(Br)cc2c1=O (centres unmarked) [Compound 1.22, 6-bromo-2-(2-methylcyclopropylmethoxy)-3-n-propyl-3H-quinazoline-4-one] | good to excellent activity | good to excellent activity | good activity | 49 to 51 °C
CCCCn1c(OCC2CC2C)nc2ccc(Br)cc2c1=O (centres unmarked) [Compound 1.25, 6-bromo-2-(2-methylcyclopropylmethoxy)-3-n-buyl-3H-quinazoline-4-one] | good to excellent activity | good to excellent activity | good activity | –
CC1CC1COc1nc2ccc(Br)cc2c(=O)n1CC1CC1 (centres unmarked) [Compound 1.30] | good to excellent activity | good to excellent activity | good activity | –
CCCn1c(OCC2CC2(Cl)Cl)nc2ccc(Br)cc2c1=O (centres unmarked) [Compound 1.37] | good to excellent activity | good to excellent activity | good activity | –
CCCn1c(OCC2(C)CC2)nc2sc(Cl)cc2c1=O [Compound 3.6, 6-chloro-2-(1-methylcyclopropylmethoxy)-3-n-propyl-3H-thieno[2.3-d]pyrimidin-4-one] | good to excellent activity | good to excellent activity | good activity | –
CCCn1c(OCC2(C)CC2)nc2sc(Br)cc2c1=O [Compound 3.7, 6-bromo-2-(1-methylcyclopropylmethoxy)-3-n-propyl-3H-thieno[2.3-d]pyrimidin-4-one] | good to excellent activity | good to excellent activity | good activity | –
CCCn1c(OCC2CC2C)nc2sc(Cl)cc2c1=O (centres unmarked) [Compound 3.21, 6-chloro-2-(2-methylcyclopropylmethoxy)-3-n-propyl-3H-thieno[2.3-d]pyrimidin-4-one] | good to excellent activity | good to excellent activity | good activity | –
CCCn1c(OCC2CC2C)nc2sc(Br)cc2c1=O (centres unmarked) [Compound 3.22, 6-bromo-2-(2-methylcyclopropylmethoxy)-3-n-propyl-3H-thieno[2.3-d]pyrimidin-4-one] | good to excellent activity | good to excellent activity | good activity | –
CCCn1c(OCC2CC2(Cl)Cl)nc2sc(Cl)cc2c1=O (centres unmarked) [Compound 3.36, 6-chloro-2-(2,2-Dichlorocyclopropylmethoxy)-3-n-propyl-3H-thieno-[2.3-d]pyrimidin-4-one] | good to excellent activity | good to excellent activity | good activity | –
CCCn1c(OCC2CC2(F)F)nc2sc(Cl)cc2c1=O (centres unmarked) [Compound 3.51] | good to excellent activity | good to excellent activity | good activity | –
CCCn1c(OCC2CC2(F)F)nc2sc(Br)cc2c1=O (centres unmarked) [Compound 3.52] | good to excellent activity | good to excellent activity | good activity | –
CCCn1c(OCC2(C)CC2)nc2c(Br)csc2c1=O [Compound 4.8] | good to excellent activity | good to excellent activity | good activity | –
CCCn1c(OCC2CC2C)nc2c(Br)csc2c1=O (centres unmarked) [Compound 4.23] | good to excellent activity | good to excellent activity | good activity | –
